Experiments:
Type in all cases: biochemical
[1] = molecular target: T1, TTK (Homo sapiens, UniProt P33981); assay: Kinase profiling TTK
T1 sequence (P33981 1-857): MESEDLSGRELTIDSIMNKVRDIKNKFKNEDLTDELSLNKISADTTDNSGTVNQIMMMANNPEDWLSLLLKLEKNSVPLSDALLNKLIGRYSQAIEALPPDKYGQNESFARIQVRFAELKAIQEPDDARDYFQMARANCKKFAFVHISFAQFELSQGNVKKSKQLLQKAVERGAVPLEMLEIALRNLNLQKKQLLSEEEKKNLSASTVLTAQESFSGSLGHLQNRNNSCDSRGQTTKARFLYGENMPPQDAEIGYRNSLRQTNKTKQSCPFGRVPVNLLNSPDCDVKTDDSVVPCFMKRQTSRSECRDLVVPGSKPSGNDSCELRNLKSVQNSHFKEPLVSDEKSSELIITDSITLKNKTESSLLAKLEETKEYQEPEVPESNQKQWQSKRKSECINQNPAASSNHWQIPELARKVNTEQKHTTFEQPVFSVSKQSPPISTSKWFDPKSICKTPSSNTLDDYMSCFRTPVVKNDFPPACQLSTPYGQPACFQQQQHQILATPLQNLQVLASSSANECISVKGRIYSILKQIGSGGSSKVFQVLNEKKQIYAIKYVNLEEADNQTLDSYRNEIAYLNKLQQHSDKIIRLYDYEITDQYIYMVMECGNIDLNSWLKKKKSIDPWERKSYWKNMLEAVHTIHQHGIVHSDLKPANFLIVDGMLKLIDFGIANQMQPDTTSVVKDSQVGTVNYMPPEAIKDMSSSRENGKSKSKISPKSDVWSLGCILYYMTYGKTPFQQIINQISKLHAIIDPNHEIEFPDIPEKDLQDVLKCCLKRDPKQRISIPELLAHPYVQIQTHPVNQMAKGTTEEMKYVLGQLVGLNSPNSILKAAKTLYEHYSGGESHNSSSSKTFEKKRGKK
Text: (§1) Any value less that 25 is considered to be highly significant inhibition.

[2] = molecular target: JAK2 (Homo sapiens, UniProt O60674); assay: Kinase profiling JAK2
Chain of JAK2 (O60674 whole entry, species assumed): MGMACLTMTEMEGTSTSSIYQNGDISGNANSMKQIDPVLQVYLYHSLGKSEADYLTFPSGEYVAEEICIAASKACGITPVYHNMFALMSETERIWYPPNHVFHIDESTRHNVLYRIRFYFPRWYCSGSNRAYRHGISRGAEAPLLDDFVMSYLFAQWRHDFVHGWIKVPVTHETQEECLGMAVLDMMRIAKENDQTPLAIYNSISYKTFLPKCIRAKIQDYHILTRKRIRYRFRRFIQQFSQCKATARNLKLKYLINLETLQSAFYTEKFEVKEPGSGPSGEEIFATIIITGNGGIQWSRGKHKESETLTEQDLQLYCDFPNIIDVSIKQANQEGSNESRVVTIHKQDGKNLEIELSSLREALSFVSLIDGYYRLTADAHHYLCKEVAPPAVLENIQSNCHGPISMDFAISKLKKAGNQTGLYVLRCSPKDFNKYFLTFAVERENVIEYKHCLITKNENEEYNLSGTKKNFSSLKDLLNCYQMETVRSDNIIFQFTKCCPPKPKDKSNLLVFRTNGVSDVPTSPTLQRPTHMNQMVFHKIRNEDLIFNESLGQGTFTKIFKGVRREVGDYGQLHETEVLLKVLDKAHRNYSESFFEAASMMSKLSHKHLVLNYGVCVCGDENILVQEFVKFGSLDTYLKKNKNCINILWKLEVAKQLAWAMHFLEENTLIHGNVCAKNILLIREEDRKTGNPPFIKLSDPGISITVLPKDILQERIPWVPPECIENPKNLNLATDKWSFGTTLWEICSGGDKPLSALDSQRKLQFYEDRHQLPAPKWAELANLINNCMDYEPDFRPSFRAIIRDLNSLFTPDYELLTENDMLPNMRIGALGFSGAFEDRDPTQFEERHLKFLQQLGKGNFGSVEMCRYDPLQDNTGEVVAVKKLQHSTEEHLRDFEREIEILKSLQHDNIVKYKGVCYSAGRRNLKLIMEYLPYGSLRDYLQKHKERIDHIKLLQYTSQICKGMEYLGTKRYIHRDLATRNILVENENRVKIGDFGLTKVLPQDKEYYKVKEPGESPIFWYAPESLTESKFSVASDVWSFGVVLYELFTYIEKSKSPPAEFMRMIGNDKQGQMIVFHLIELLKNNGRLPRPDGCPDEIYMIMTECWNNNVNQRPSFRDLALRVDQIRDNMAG
Text: as §1

[3] = molecular target: p38a MAPK (Homo sapiens, UniProt Q16539); assay: Kinase profiling p38a MAPK
Text: as §1

[4] = molecular target: T2, MST2 (Homo sapiens, UniProt Q13188); assay: Kinase profiling MST2
T2 sequence (Q13188 1-491): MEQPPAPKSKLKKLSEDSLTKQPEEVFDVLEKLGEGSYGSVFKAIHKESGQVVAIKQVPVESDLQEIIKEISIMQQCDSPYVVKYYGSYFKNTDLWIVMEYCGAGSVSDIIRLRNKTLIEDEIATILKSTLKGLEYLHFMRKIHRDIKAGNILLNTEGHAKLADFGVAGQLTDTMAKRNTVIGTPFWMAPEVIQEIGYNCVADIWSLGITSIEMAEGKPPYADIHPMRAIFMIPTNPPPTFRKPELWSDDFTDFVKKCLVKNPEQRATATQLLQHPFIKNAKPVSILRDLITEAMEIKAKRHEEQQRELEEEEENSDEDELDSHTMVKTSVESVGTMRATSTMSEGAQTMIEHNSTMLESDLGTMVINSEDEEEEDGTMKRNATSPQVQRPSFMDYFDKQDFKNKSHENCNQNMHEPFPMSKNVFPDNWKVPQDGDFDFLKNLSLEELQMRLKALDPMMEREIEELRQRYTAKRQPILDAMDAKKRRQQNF
Text: as §1

[5] = molecular target: SmMLCK (Homo sapiens, UniProt Q15746); assay: Kinase profiling SmMLCK
Chain of SmMLCK (Q15746 923-1914): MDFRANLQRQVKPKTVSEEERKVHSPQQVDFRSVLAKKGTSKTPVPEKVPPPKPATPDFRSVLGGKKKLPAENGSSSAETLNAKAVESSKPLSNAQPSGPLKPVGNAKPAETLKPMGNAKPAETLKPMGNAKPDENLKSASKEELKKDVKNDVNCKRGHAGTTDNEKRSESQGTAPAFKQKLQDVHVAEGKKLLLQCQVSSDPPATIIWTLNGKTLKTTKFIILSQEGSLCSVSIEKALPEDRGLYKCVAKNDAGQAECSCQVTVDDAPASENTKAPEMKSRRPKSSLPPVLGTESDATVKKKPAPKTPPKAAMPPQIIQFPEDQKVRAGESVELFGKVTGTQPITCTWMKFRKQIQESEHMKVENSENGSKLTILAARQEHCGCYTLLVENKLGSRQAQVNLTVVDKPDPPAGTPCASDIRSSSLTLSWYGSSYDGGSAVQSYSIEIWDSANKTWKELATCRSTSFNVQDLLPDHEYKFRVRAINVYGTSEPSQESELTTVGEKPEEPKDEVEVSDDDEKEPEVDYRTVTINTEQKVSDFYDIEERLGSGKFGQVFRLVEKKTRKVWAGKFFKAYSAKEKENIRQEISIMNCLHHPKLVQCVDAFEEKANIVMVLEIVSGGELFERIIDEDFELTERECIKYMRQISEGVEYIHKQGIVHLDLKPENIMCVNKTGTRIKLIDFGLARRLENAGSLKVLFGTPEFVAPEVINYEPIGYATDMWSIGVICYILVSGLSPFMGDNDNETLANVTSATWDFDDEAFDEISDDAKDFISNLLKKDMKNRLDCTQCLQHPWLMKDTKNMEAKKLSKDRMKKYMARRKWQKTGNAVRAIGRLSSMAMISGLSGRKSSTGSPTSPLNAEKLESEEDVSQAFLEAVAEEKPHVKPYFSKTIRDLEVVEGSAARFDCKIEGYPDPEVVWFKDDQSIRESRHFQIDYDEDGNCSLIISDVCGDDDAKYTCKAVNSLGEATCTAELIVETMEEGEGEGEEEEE

[6] = molecular target: IGF-1R (Homo sapiens, UniProt P08069); assay: Kinase profiling IGF-1R
Chain of IGF-1R (P08069 31-1367, species assumed): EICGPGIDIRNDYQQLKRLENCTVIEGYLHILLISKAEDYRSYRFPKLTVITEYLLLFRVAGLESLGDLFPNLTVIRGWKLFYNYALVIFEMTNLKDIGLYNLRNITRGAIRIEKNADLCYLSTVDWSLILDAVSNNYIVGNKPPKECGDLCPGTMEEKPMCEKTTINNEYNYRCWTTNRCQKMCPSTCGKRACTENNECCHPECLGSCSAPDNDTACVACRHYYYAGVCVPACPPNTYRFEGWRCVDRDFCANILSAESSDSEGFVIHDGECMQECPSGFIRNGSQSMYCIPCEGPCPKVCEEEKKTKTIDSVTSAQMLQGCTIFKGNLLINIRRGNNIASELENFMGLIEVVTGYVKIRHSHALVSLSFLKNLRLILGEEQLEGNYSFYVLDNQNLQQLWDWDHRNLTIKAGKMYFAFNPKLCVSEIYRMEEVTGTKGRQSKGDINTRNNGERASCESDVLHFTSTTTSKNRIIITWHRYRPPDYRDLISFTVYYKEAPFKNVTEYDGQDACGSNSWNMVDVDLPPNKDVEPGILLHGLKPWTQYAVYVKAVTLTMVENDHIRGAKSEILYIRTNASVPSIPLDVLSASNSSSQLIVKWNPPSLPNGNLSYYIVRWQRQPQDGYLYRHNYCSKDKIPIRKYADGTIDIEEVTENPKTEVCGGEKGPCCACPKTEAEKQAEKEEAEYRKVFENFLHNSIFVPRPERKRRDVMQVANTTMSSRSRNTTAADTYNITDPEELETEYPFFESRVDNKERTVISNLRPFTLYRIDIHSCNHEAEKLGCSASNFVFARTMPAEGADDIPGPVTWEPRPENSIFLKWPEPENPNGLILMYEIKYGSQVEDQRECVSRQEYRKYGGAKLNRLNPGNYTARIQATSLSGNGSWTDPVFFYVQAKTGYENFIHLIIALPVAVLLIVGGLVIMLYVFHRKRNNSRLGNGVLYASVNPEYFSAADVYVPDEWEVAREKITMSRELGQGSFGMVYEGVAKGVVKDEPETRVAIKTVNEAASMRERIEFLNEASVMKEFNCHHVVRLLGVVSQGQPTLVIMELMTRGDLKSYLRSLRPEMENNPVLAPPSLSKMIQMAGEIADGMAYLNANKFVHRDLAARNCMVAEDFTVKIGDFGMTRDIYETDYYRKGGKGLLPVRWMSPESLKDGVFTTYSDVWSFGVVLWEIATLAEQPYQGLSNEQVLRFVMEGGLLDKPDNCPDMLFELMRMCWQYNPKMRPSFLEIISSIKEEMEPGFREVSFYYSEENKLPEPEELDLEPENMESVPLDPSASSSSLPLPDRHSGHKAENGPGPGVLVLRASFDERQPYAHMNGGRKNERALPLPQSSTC
Text: as §1

[7] = molecular target: RIPK2 (Homo sapiens, UniProt O43353); assay: Kinase profiling RIPK2
Chain of RIPK2 (O43353 whole entry, species assumed): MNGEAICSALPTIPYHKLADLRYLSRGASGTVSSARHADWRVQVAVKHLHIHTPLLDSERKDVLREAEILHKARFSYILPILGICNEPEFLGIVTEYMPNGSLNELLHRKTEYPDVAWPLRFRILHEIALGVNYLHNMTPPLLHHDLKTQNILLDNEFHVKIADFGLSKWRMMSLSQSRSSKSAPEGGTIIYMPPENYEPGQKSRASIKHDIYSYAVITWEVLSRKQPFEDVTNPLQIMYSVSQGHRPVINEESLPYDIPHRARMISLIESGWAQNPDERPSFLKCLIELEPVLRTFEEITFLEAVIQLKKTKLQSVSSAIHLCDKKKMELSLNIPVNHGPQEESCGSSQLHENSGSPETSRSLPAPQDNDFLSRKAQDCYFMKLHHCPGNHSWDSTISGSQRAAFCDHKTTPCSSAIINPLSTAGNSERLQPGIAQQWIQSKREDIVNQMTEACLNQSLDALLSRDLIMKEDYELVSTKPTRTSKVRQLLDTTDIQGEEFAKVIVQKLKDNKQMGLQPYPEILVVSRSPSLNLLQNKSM
Text: as §1

[8] = molecular target: T3, SGK1 (Homo sapiens, UniProt O00141); assay: Kinase profiling SGK1
T3 sequence (O00141 1-431): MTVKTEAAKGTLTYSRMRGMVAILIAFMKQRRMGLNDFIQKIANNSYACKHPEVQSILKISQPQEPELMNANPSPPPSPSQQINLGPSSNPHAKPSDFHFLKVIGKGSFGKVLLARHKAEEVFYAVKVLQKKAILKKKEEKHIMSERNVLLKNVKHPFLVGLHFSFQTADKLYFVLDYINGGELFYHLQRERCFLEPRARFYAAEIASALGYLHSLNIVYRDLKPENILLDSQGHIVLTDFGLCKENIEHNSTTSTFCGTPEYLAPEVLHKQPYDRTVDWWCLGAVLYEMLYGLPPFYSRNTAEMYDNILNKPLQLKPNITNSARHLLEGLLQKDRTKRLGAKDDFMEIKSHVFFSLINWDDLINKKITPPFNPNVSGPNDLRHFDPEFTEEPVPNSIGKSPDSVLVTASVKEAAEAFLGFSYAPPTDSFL
Text: as §1

[9] = molecular target: MKK1 (Homo sapiens, UniProt Q02750); assay: Kinase profiling MKK1
Chain of MKK1 (Q02750 whole entry, species assumed): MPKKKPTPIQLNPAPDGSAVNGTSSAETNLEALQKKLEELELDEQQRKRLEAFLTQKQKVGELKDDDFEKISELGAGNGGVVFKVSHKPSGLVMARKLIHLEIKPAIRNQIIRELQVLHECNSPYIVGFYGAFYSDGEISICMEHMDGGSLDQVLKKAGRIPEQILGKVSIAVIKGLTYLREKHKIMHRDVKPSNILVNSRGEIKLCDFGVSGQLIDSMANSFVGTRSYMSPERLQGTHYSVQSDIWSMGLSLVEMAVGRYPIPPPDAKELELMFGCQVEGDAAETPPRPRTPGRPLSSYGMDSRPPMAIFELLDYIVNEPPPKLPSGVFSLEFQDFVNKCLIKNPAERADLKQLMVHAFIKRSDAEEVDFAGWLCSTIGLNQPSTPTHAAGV
Text: as §1

[10] = molecular target: JNK1 (Homo sapiens, UniProt P45983); assay: Kinase profiling JNK1
Chain of JNK1 (P45983 whole entry, species assumed): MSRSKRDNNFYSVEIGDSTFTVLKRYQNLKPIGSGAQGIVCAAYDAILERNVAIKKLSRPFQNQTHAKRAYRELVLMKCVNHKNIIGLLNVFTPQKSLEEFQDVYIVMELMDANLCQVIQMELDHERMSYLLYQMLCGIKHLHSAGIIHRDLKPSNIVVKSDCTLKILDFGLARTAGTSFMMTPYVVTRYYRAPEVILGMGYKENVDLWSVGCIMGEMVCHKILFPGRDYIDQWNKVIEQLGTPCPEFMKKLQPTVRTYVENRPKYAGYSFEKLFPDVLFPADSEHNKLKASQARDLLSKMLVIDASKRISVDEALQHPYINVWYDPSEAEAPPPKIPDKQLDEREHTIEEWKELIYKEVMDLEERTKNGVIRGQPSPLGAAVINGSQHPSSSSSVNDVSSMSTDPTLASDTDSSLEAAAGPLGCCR
Text: as §1

[11] = 100 micromolar inhibitor concentration, 100 is no change
[12] = 100 micromolar inhibitor, 100 = no change

Row | SMILES | residual kinase activity, TTK [1, 11] | residual kinase activity, JAK2 [2, 11] | residual kinase activity, p38a MAPK [3, 11] | residual kinase activity, MST2 [4, 11] | residual kinase activity, SmMLCK [5, 11] | residual kinase activity, IGF-1R [6, 11] | residual kinase activity, RIPK2 [7, 11] | residual kinase activity, SGK1 [8, 11] | residual kinase activity, MKK1 [9, 11] | residual kinase activity, JNK1 [10, 11] | also measured
1 | O=C(Nc1nc2ccc(F)cc2s1)c1ccccc1 [Compound 03-92] | 47 | 109 | 114 | 110 | 68 | 88 | 69 | 93 | 93 | 94 | –
2 | CC(=O)Nc1nc2ccc(F)cc2s1 [Compound 03-94] | 37 | 49 | 84 | 91 | 67 | 92 | 38 | 67 | 76 | 82 | –
3 | COc1ccc2sc(NC(=O)c3ccccc3)nc2c1 [Compound 03-95] | 71 | 86 | 82 | 95 | 48 | 100 | 40 | 60 | 92 | 90 | –
4 | COc1ccc2nc(NC(=O)c3ccccc3)sc2c1 [Compound 03-98] | 18 | 81 | 86 | 86 | 75 | 104 | 34 | 78 | 105 | 95 | –
5 | O=C(Nc1nc2ccc(C(F)(F)F)cc2s1)c1ccccc1 [Compound 03-99] | 32 | 87 | 86 | 93 | 89 | 85 | 89 | 69 | 87 | 86 | –
6 | O=C(Nc1nc2cc(O)ccc2s1)c1ccccc1 [Compound 03-102] | 30 | 47 | 57 | 46 | 15 | 52 | 24 | 86 | 52 | 83 | –
7 | COC(=O)c1cccc(C(=O)Nc2nc3ccc(C(F)(F)F)cc3s2)c1 [Compound 03-105, Methyl 3-((6-(trifluoromethyl)benzo[d]thiazol-2-yl)carbamoyl)benzoate] | – | – | – | – | – | – | – | – | – | – | remaining activity at 100 µM ([1]; read-out: residual kinase activity, TTK): 9%; remaining activity at 100 µM ([2]; read-out: residual kinase activity, JAK2): 101%; remaining activity at 100 µM ([3]; read-out: residual kinase activity, p38a MAPK): 84%; remaining activity at 100 µM ([4]; read-out: residual kinase activity, MST2): 99%; remaining activity at 100 µM ([5]; 100 micromolar inhibitor concentration, 100 is no change, read-out: residual kinase activity, SmMLCK): 63%; remaining activity at 100 µM ([6]; read-out: residual kinase activity, IGF-1R): 101%; remaining activity at 100 µM ([7]; read-out: residual kinase activity, RIPK2): 79%; remaining activity at 100 µM ([8]; read-out: residual kinase activity, SGK1): 86%; remaining activity at 100 µM ([9]; read-out: residual kinase activity, MKK1): 86%; remaining activity at 100 µM ([10]; read-out: residual kinase activity, JNK1): 84%
8 | N#Cc1ccc2nc(NC(=O)c3ccccc3)sc2c1 [Compound 03-106] | 42 | 87 | 60 | 103 | 94 | 131 | 78 | 77 | 58 | 84 | –
9 | COC(=O)c1cccc(C(=O)Nc2nc3cc(OC)ccc3s2)c1 [Compound 03-108] | 94 | 85 | 94 | 77 | 79 | 123 | 39 | 83 | 94 | 93 | –
10 | COC(=O)c1cccc(C(=O)Nc2nc3ccc(F)cc3s2)c1 [Compound 03-110] | 35 | 89 | 106 | 88 | 55 | 96 | 48 | 87 | 70 | 98 | –
11 | COc1ccc2sc(NC(=O)c3cccc(C(N)=O)c3)nc2c1 [Compound 03-113] | 95 | 113 | 113 | 119 | 83 | 104 | 99 | 88 | 119 | 86 | –
12 | COc1ccc2nc(C(=O)Nc3ccccc3)sc2c1 [Compound 13-03] | – | – | – | – | – | – | – | – | – | – | residual kinase activity, TTK [1, 12]: 108; residual kinase activity, JAK2 [2, 12]: 93; residual kinase activity, p38a MAPK [3, 12]: 103; residual kinase activity, MST2 [4, 12]: 107; residual kinase activity, SmMLCK [5, 12]: 85; residual kinase activity, IGF-1R [6, 12]: 104; residual kinase activity, RIPK2 [7, 12]: 76; residual kinase activity, SGK1 [8, 12]: 91; residual kinase activity, MKK1 [9, 12]: 70; residual kinase activity, JNK1 [10, 12]: 88
